The NIST ThermoML archive (doi:10.1016/j.jct.2016.09.022)

Legend:
[1] = Liquid; for speed of sound: Frequency=1.5 MHz, Single path-length method; for mass density: 298.15 K, 101.33 kPa, Vibrating tube method
[2] = refractive index (Na D-line) (dimensionless); conditions: 298.15 K; 101.33 kPa; Liquid; Standard Abbe refractometry

CCCCCCCC [octane]
speed of sound [m/s], [1]
Conditions	283.15 K	293.15 K	303.15 K	313.15 K	323.15 K	333.15 K	343.15 K
100 kPa	1234.6	1193.7	1151.8	1112.1	1071.1	1030.9	990.7
5100 kPa	1267.1	1227.9	1187.6	1149	1110.4	1072.4	1034.3
10100 kPa	1296.9	1259.5	1221	1183.4	1146.1	1110.1	1074.2
20100 kPa	1353.6	1317.2	1282.1	1247.3	1212.3	1178.2	1145
30100 kPa	1405.7	1370.4	1336.8	1303.8	1271.6	1239.8	1208.7
40100 kPa	1453.5	1419.6	1388.1	1356.4	1325.3	1295	1265.9
50100 kPa	1498	1465.6	1435.5	1405.1	1375.2	1346.2	1318
60100 kPa	1539.8	1508.4	1480	1450.7	1421.8	1393.9	1367.8
70100 kPa	1579.8	1549	1521.7	1493.2	1465.5	1438.5	1412.8
80100 kPa	1619	1587.3	1561.4	1533.6	1506.6	1480.2	1455.5
90100 kPa	1652.4	1623.9	1598.9	1571.9	1545.7	1519.8	1496
95100 kPa	1670.7	1641.8	1617	1590.2	1564.5	1539	1515.2

Conditions	mass density [kg/m3]	refractive index
[1]	698.4	–
[2]	–	1.3951

CCCO [propan-1-ol]
speed of sound [m/s], [1]
Conditions	283.15 K	293.15 K	303.15 K	313.15 K	323.15 K	333.15 K	343.15 K
100 kPa	1260.3	1223.5	1189.2	1155.3	1121.7	1088.3	1054.4
5100 kPa	1287.8	1252.2	1219.6	1186.7	1153.8	1122.2	1090.2
10100 kPa	1313.7	1279.6	1248.2	1216.4	1184.6	1153.7	1123.4
20100 kPa	1362.3	1330	1300.9	1271.4	1241.7	1212.8	1183.9
30100 kPa	1407.9	1377	1349.1	1320.6	1293	1265.9	1239.2
40100 kPa	1450.3	1420.8	1394.3	1366.8	1340.2	1314.2	1289.2
50100 kPa	1490.2	1461.7	1436.6	1410.1	1384.6	1359.7	1335.5
60100 kPa	1527.4	1500.3	1476.2	1450.6	1426.4	1402.2	1379
70100 kPa	1563.2	1537.2	1513.7	1489.5	1465.1	1441.9	1419.9
80100 kPa	1597.2	1572.1	1549.5	1525.9	1502.3	1479.3	1458.2
90100 kPa	1630	1605.3	1583.6	1560.4	1537.5	1515.2	1497.2
95100 kPa	1645.7	1621.6	1600.1	1577.2	1554.4	1532.6	1512.2

Conditions	mass density [kg/m3]	refractive index
[1]	799.5	–
[2]	–	1.383

Cc1ccccc1 [toluene]
speed of sound [m/s], [1]
Conditions	283.15 K	293.15 K	303.15 K	313.15 K	323.15 K	333.15 K	343.15 K
100 kPa	1369.5	1327.9	1284.1	1241.9	1200.2	1156.6	1118
5100 kPa	1395.4	1352.2	1309.8	1269	1229.2	1187.4	1149.1
10100 kPa	1418.1	1376	1334.3	1294.5	1256.4	1215.9	1178.9
20100 kPa	1460.8	1420.5	1380.9	1341	1306.4	1268.1	1234.3
30100 kPa	1500.8	1462	1424	1387	1352.7	1315.7	1283.9
40100 kPa	1538.7	1500.9	1464.7	1429.5	1396.3	1360.3	1329.5
50100 kPa	1574.4	1537.9	1503.3	1468.9	1436.9	1402.7	1371.4
60100 kPa	1608.1	1572.4	1539.6	1506.4	1474.9	1441.4	1413.5
70100 kPa	1640.3	1605.2	1572.1	1542.7	1511	1478.2	1451.5
80100 kPa	1670.9	1637	1605.2	1576.1	1545.3	1513.1	1487.6
90100 kPa	1700.3	1667.1	1638.2	1607.4	1576.7	1546.5	1522.1
95100 kPa	1714.5	1682	1653.5	1621.2	1591.2	1563	1538.7

Conditions	mass density [kg/m3]	refractive index
[1]	862.2	–
[2]	–	1.494

O [water]
speed of sound [m/s], [1]
Conditions	283.15 K	293.15 K	303.15 K	313.15 K	323.15 K	333.15 K	343.15 K
100 kPa	1447.3	–	–	1528.9	–	1551	1554.8
5100 kPa	1455.9	1490.5	1517.5	1537.6	1551.5	1560.1	1565
10100 kPa	1463.8	1498.9	1525.9	1546.1	1560.2	1569.2	1574.4
20100 kPa	1479.9	1515.3	–	1563.2	1577.7	1587.1	1592.8
30100 kPa	1496.2	1531.9	1559.5	1580.3	1595	1604.8	1610.8
40100 kPa	1513.4	1548.6	1576.3	1597.1	1612.2	1622.2	1628.6
50100 kPa	–	1565.3	1593.1	1613.8	1629	1639.3	1646.1
60100 kPa	1548	1582.2	1609.8	1630.4	1645.7	1656.3	1663.9
70100 kPa	1565.4	1599.1	1626.3	1646.9	1662.3	1673.1	1681
80100 kPa	1582.7	1615.8	1642.6	1663.3	1678.3	1689.6	1697.4
90100 kPa	1600.1	1632.4	1659	1679.4	1694.9	1705.9	1714.2
95100 kPa	1608.7	1640.7	1667.3	1687.5	1702.9	1714	1723

Conditions	refractive index
[2]	1.3326
